# According to US20080234340A1, “Synthesis and characterization of polymorph form II of 4-(2-(4,4-dimethyl-2-oxooxazolidin-3-YL)thiazol-4-YL)benzonitrile” (Wyeth, priority 2007, published 2008):
# Tests used:
# [1] = molecular target: T1, progesterone receptor (PR) (Homo sapiens, UniProt P06401); assay: T47D alkaline phosphatase activity assay to identify progestins or antiprogestins; type: cell-based; settings: T47D cells
# T1 construct: in live, intact (whole) cells using the human breast carcinoma T47D cell line; endogenous in cells; host or cells: T47D human breast carcinoma cells
# T1 sequence (P06401 1-933): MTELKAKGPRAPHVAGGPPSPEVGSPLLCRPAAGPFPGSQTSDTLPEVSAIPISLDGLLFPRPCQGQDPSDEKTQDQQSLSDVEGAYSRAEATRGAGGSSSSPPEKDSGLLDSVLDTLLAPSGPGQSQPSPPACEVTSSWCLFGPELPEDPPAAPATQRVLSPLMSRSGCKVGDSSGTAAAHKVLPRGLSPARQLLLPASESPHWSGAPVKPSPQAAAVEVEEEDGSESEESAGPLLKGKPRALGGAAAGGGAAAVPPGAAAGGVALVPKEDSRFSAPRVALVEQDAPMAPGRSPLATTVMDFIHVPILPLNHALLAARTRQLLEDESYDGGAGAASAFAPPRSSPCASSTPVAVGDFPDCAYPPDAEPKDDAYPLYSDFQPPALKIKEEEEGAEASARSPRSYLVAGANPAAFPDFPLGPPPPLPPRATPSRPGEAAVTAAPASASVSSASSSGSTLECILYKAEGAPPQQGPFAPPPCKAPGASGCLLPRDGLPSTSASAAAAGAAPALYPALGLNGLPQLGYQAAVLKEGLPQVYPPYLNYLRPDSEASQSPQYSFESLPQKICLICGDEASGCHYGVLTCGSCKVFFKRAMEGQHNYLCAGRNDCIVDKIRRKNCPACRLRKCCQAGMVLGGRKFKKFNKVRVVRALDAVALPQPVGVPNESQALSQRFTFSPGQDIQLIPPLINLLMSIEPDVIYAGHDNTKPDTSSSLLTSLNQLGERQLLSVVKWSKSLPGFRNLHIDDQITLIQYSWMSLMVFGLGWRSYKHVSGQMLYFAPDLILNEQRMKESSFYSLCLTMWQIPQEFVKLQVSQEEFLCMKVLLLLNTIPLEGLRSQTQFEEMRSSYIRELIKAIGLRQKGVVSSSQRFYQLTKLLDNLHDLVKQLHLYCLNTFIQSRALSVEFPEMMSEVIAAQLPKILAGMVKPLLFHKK
# Source text: (§1) The compound 4-(2-(4,4-dimethyl-2-oxooxazolidin-3-yl)thiazol-4-yl)benzonitrile has shown activity for modulating PR activity in assays to identify progestins or antiprogestins by (a) determining effect on alkaline phosphatase activity in T47D cells or (b) evaluating the progesterone receptor (PR) binding activity in live, intact (whole) cells using the human breast carcinoma T47D cell line and ^3H-progesterone as the labeled ligand (data presented in Table below).
# [2] = molecular target: T1, progesterone receptor (PR); assay: PR whole cell binding in T47D cells with 3H-progesterone as labeled ligand; settings: live, intact T47D cells; 3H-progesterone labeled ligand
# Source text: as §1
# [3] = Hygroscopicity (ability to absorb water/moisture from the air); type: physicochemical; settings: normal, atmospheric conditions
# Source text: One of skill in the art would readily be able to measure the hygroscopicity of Form II using techniques known in the art including, without limitation, dynamic vapor sorption (DVS) at relative humidities ranging from 0 to 100%. This decreased hygroscopic property of Form II thereby permits longer shelf life and storage of the solid compound in comparison to Form I.
# [4] = Solubility in solvent at room temperature, centrifuged after 24 hours, supernatant assayed; type: physicochemical
# Procedure: In another embodiment, the solvent is 2% Tween® 80 reagent in water, wherein Tween® 80 is a polyoxyethylene (20) sorbitan monooleate. One of skill in the art would readily be able to measure the solubility of Form II using techniques known in the art. Typically, the solubility was measured by adding Form II to a solvent at room temperature, centrifuging the solution after 24 hours, and assaying the supernatant. This increased solubility is observed when Form II is immersed in water.
# In this example, the solubility of polymorph Form II of 4-(2-(4,4-dimethyl-2-oxooxazolidin-3-yl)thiazol-4-yl)benzonitrile in water is measured.
Compound,IC50 [1],Ki [2],Hygroscopicity compared with Form I [3],"Solubility compared with Form I ([4]; solvents such as water and hydrophilic non-ionic surfactants (2% Tween 80 in water), room temperature, 24 hours)",Solubility in water relative to Form I ([4]; water)
"CC1(C)COC(=O)N1c1nc(-c2ccc(C#N)cc2)cs1 [4-(2-(4,4-dimethyl-2-oxooxazolidin-3-yl)thiazol-4-yl)benzonitrile]",3.1 nM,4.9 nM,,,
"CC1(C)COC(=O)N1c1nc(-c2ccc(C#N)cc2)cs1 [Form II, 4-(2-(4,4-dimethyl-2-oxooxazolidin-3-yl)thiazol-4-yl)benzonitrile]",,,less hygroscopic than Form I,more soluble,4 times
